Measured values from patent publication EP0103895A2, “Novel hydroxylamine derivatives, production and use thereof” (MEIJI SEIKA KABUSHIKI KAISHA, priority 1982, dated 1984).
Where “and” joins values, the source holds several entries; their conditions need not be identical. Equal entries are not always repeated. Where two headings read alike, the source gives them in different places.

Tests used:
[1] = system: Liver fluke; Fasciola hepatica (F. hepatica); test: Test of anthelmintic effect against rat infected experimentally with liver fluke (Test Examples A11, B11, C11, D11); assay type: in vivo; design: key to Presence or absence of fluke egg in fecal matter On 21st day after the last administration: +: indicates detection of fluke egg; -: indicates no detection; details: for Condition of fluke body: autopsy, liver, "Denatured" = fluke body is alive but a part of fluke body has changed
Text: Twenty-eight (28) rats were employed in fourteen groups each of two rats, each rat being infected with 5 metacercariae of Liver fluke; Fasciola he^patica (F.. hepatica) and confirmed to have worm eggs on the 75th day after infection according to fecal matter testing.
Judgement of the effect was made by the presence or absence of the worm gees in the fecal matter on the 21st day after the last administration and by examination according to autopsis as to whether the worm bodies were dead or alive in the liver.
The same as that in Test Example All, but eight (8) rats were employed by grouping them into groups each of two rats, each rat being infected with 5 metacercariae of liver fluke and confirmed to have fluke eggs on the 75th day after infection according to fecal matter testing.
The compounds provided for the tests were Compound Nos. Bl, B8 and B19.
The same as that in Test Example All, but six (6) rats were employed by grouping them into groups each of two rats, each rat being infected with 5 metacercariae of Fasciola hepatica and confirmed to have worm eggs on the 75th day after infection according to fecal matter testing.
The compounds provided for the tests were Compound Nos. C2 and C6.
The same as that in Test Example All, but the compounds provided for tests were Compound Nos. D14, D15 and D16.

[2] = system: fowl roundworm (As. galli); test: Anthelmintic test in chickens artificially infected with fowl roundworm, compound added to feed, E.P.G. and worm count up to 21st day (Test Examples A2, B2, C2, D2); assay type: in vivo, Ascaridia galli; details: Ascaridia galli, 504 h, read-out: Anthelmintic effect; for inhibition in vivo at 10 ppm: 10 ppm added to feed
Method: Chickens artificially infected with fowl roundworm (As. galli) were employed in groups each of two chickens.
Fecal matter testing was conducted before initiation of the test and on the 7th, 14th and 21st day after initiation of the test. Reduction in worm egg number was examined by calculating E.P.G. (worm eggs per 1 g of fecal matter), and the number of discharged worm bodies and the number of worm bodies remaining in the enteron when the chicken was killed on 21st day were counted to determine the anthelmintic percentage, from which the anthelmintic effect was judged.

[3] = system: fowl roundworm (Ascaridia galli); test: Anthelmintic test in chickens artificially infected with fowl roundworm, single oral dose in gelatin capsule, worm bodies counted within 48 hours (Test Examples A1, B1, C1, D1); assay type: in vivo; details: Ascaridia galli, po, 48 h, read-out: Anthelmintic effect after 48 hours; for inhibition in vivo at 30 mg/kg: 30 mg/Kg oral in gelatin capsule
Method: Chickens infected artificially with fowl roundworm (Ascaridia galli) were employed in groups each consisting of three chickens. Fecal matter testing was conducted before administration of medicine to confirm infection with the worm. The quantity of the compound provided for testing was 10 mg and 20 mg per Kg of body weight, which was orally administered each in a gelatin capsule to the chicken. The number of worm bodies discharged within 48 hours after administration of medicine was counted, the chicken was killed after 48 hours and the number of worm bodies remaining in the enteron was counted to determine the anthelmintic percentage, wherefrom the antihelmintic effect was judged.
The same as that in Test Example Al.
The same as that in Test Example Al except that the compound provided for testing was in quantities of 30 mg and 50 mg per Kg of body weight, which were orally administered to the chickens in gelatin capsules.
The same as that in Test Example Al, except that the compounds provided for testing were used in quantities of 15 mg and 30 mg per Kg of body weight, which were orally administered each in a gelatin capsule to the chicken.

[4] = system: swine Oesophagostomum (Oesophagostomum dentatum); test: Test of anthelmintic effect against swine Oesophagostomum in naturally infected pigs, E.P.G. on 7th day (Test Examples A8, B8, C8, D8); assay type: in vivo
Method: Six pigs infected with swine Oesophagostomum (naturally infected pigs) were employed by grouping them into groups each of two pigs.
As a control, only gelatin capsules were administered orally to the two pigs.
Before administration and on the 7th day after administration, fecal matter testing was conducted to calculate the E.P.G., and the anthelmintic effect was judged by the changing of the E.P.G. to negative.

[5] = system: fowl roundworm (As. galli); test: Anthelmintic test in chickens infected with fowl roundworm, single oral dose of 40 mg per Kg, worm bodies counted within 24 hours (Test Example E1); assay type: in vivo, Ascaridia galli; details: 40 mg per Kg oral in gelatin capsule; for inhibition in vivo at 40 mg/kg: Ascaridia galli, 24 h, chicken No.1, read-out: Anthelmintic effect after one day
Method: Chickens infected with fowl roundworm (As. galli) were employed in groups each consisting of five chickens. The compound provided for testing was orally administered in a quantity of 40 mg per Kg of body weight to each chicken in a gelatin capsule. The number of worm bodies discharged within 24 hours after administration of the medicine was counted. Then the chicken was killed, and the number of worm bodies remaining in the enteron was counted to determine the anthelmintic percentage, wherefrom the anthelmintic effect was judged.

[6] = system: fowl roundworm (As. galli); test: Anthelmintic test in chickens infected with fowl roundworm, compound added to feed at 250 ppm and 1,000 ppm, E.P.G. and worm count on 5th day (Test Example E2); assay type: in vivo, Ascaridia galli; details: for E.P.G. after 5 days: worm egg number in 1 g of fecal matter; for anthelmintic effect / inhibition in vivo at 250 ppm / inhibition in vivo at 1000 ppm: 5th day; for inhibition in vivo at 250 ppm / inhibition in vivo at 1000 ppm: Ascaridia galli, feed or water, 120 h, read-out: Anthelmintic effect
Method: Chickens infected with fowl roundworm (As. galli) were employed in groups each of two chickens.
The compound provided for the test was dissolved in a small amount of ethyl alcohol and adsorbed on defatted rice bran and added to chicken feed at levels of 250 ppm and 1,000 ppm. As control, a feed containing no such compound was employed.
Fecal matter testing was conducted before initiation of the test and on the 5th day after initiation of the test. The reduction in worm egg count was examined by calculating the E.P.G. (worm egg number in 1 g of fecal matter). The number of discharged worm bodies and the number of worm bodies remaining in the enteron when the chicken was killed on 5th day were counted to determined the anthelmintic percentage, from which the anthelmintic effect was judged.

[7] = rats, 50 mg/Kg x 5 orally, one value per rat
[8] = po, chickens, worm count on 21st day, one value per chicken
[9] = po, chickens, 50 ppm added to feed, worm count on 21st day, one value per chicken
[10] = rats, 50 mg/Kg x 5 orally, one value per rat, 50 mg/kg
[11] = 1000 ppm in feed, chicken No. 1
[12] = 1000 ppm in feed, chicken No. 2

## C#CCN(OCC)C(C)=O [Compound A2, N-propargyl-N-acetyl-O-ethylhydroxylamine]
[1]; [7]
  Condition of fluke body: dead
  Presence or absence of fluke egg in fecal matter On 21st day after the last administration: -
[2]; [8]
  inhibition in vivo at 10 ppm: 80 to 90%
[2]; [9]
  inhibition in vivo at 50 ppm: 100%

## C#CCN(OCC=CC)C(C)=O [Compound A4, N-propargyl-N-acetyl-O-crotylhydroxylamine]
[1]; [7]
  Condition of fluke body: dead
  Presence or absence of fluke egg in fecal matter On 21st day after the last administration: -
[2]; [8]
  inhibition in vivo at 10 ppm: 80 to 90%
[2]; [9]
  inhibition in vivo at 50 ppm: 100%

## C#CCN(OCC=C)C(=O)CC [Compound A5, N-propargyl-N-propionyl-0-allylhydroxylamine]
[1]; [7]
  Condition of fluke body: dead
  Presence or absence of fluke egg in fecal matter On 21st day after the last administration: -
[2]; [8]
  inhibition in vivo at 10 ppm: 80 to 90%
[2]; [9]
  inhibition in vivo at 50 ppm: 100%

## C#CCN(OCC=C)C(=O)CCC [Compound A6, N-propargyl-N-butylyl-O-allylhydroxylamine]
[1]; [10]
  Condition of fluke body: dead and denatured
[1]; [7]
  Presence or absence of fluke egg in fecal matter On 21st day after the last administration: -
[2]; [8]
  inhibition in vivo at 10 ppm: 100%
[2]; [9]
  inhibition in vivo at 50 ppm: 100%

## C#CCN(OCC=C)C(=O)CCCC [Compound A7, N-propargyl-N-valeroyl-O-allylhydroxylamine]
[1]; [7]
  Condition of fluke body: dead
  Presence or absence of fluke egg in fecal matter On 21st day after the last administration: -
[2]; [8]
  inhibition in vivo at 10 ppm: 80 to 90%
[2]; [9]
  inhibition in vivo at 50 ppm: 100%

## C#CCN(OCC=C)C(=O)CCCCCCC/C=C\CCCCCCCC [Compound A8, N-propargyl-N-oleoyl-O-allylhydroxylamine]
[1]; [7]
  Condition of fluke body: dead
  Presence or absence of fluke egg in fecal matter On 21st day after the last administration: -
[2]; [8]
  inhibition in vivo at 10 ppm: 100%
[2]; [9]
  inhibition in vivo at 50 ppm: 100%

## C#CCN(OCC=C)C(=O)CCCCCCCCCCCCCCCCC [Compound A9, N-propargyl-N-stearoyl-N-allylhydroxylamine]
[1]; [7]
  Condition of fluke body: dead
  Presence or absence of fluke egg in fecal matter On 21st day after the last administration: -
[2]; [8]
  inhibition in vivo at 10 ppm: 100%
[2]; [9]
  inhibition in vivo at 50 ppm: 100%

## C#CCN(OCC=C)C(=O)c1ccccc1 [Compound A11, N-propargyl-N-benzoyl-O-allylhydroxylamine]
[1]; [7]
  Condition of fluke body: dead
  Presence or absence of fluke egg in fecal matter On 21st day after the last administration: -
[2]; [8]
  inhibition in vivo at 10 ppm: 80 to 90%
[2]; [9]
  inhibition in vivo at 50 ppm: 100%

## C#CCN(C=O)OCC=C [Compound A13, N-propargyl-N-formyl-0-allylhydroxylamine]
[1]; [10]
  Condition of fluke body: denatured and dead
[1]; [7]
  Presence or absence of fluke egg in fecal matter On 21st day after the last administration: -
[3]; chickens, 10 mg/Kg orally in gelatin capsule, one value per chicken (No.1-3)
  inhibition in vivo at 10 mg/kg: 100%
[3]; chickens, 20 mg/Kg orally in gelatin capsule, one value per chicken (No.1-3)
  inhibition in vivo at 20 mg/kg: 100%
[2]; [8]
  inhibition in vivo at 10 ppm: 80 to 90%
[2]; [9]
  inhibition in vivo at 50 ppm: 100%

## C#CCNOCCCC [Compound D12]
[3]; chicken, chickens No.1-3
  inhibition in vivo at 30 mg/kg: 100%
[4]; pig, Oesophagostomum dentatum, 20 mg/Kg, one administration
  Change of E.P.G. 7th day: 0
[4]; pig, Oesophagostomum dentatum, before 20 mg/Kg (baseline)
  Change of E.P.G. Before administration: 1,600 and 2,100
[4]; pigs, one administration of 20 mg/Kg
  anthelmintic effect: marked anthelmintic effect

## C#CCNOCC#C [Compound D15]
[1]; rat, 50 mg/Kg x 5
  Condition of fluke bodies: dead
  Presence or absence of fluke egg in fecal matter On 21st day after the last administration: -
[1]; rats, five administrations in a dose of 50 mg/Kg each
  anthelmintic effect: marked anthelmintic effect
[3]; chicken, 15 mg/Kg oral in gelatin capsule, chickens No.1-3
  inhibition in vivo at 15 mg/kg: 100%
[3]; chicken, chickens No.1-3
  inhibition in vivo at 30 mg/kg: 100%
[2]; feed or water, chicken, 25 ppm in feed
  inhibition in vivo at 25 ppm: 80 to 90%
[2]; feed or water, chicken, 50 ppm in feed
  inhibition in vivo at 50 ppm: 100%

## C#CCON(C=O)CC#C [Compound E9, N,O-dipro- pargyl-N-formylhydroxylamine]
[5]
  inhibition in vivo at 40 mg/kg: 100%
[5]; chicken No.2
  Anthelmintic effect after one day: +++ (100%)
[5]; chicken No.3
  Anthelmintic effect after one day: +++ (100%)
[5]; chicken No.4
  Anthelmintic effect after one day: +++ (100%)
[5]; chicken No.5
  Anthelmintic effect after one day: +++ (100%)
[6]; 250 ppm in feed, chicken No. 1
  E.P.G. after 5 days: 0
  inhibition in vivo at 250 ppm: 100%
[6]; 250 ppm in feed, chicken No. 2
  anthelmintic effect: +++ (100%)
  E.P.G. after 5 days: 0
[6]; [11]
  E.P.G. after 5 days: 0
  inhibition in vivo at 1000 ppm: 100%
[6]; [12]
  anthelmintic effect: +++ (100%)
  E.P.G. after 5 days: 0

## C#CCON(CC#C)C(=O)CCCCCCCCCCC [Compound E10, N,O-dipropargyl-N-lauroylhydroxylamine]
[5]
  inhibition in vivo at 40 mg/kg: 100%
[5]; chicken No.2
  Anthelmintic effect after one day: +++ (100%)
[5]; chicken No.3
  Anthelmintic effect after one day: +++ (100%)
[5]; chicken No.4
  Anthelmintic effect after one day: +++ (100%)
[5]; chicken No.5
  Anthelmintic effect after one day: +++ (100%)
[6]; 250 ppm in feed, chicken No. 1
  E.P.G. after 5 days: 0
  inhibition in vivo at 250 ppm: 100%
[6]; 250 ppm in feed, chicken No. 2
  anthelmintic effect: +++ (100%)
  E.P.G. after 5 days: 0
[6]; [11]
  E.P.G. after 5 days: 0
  inhibition in vivo at 1000 ppm: 100%
[6]; [12]
  anthelmintic effect: +++ (100%)
  E.P.G. after 5 days: 0

## C#CCON(CC#C)C(=O)CCCCCCCCCCCCCCCCC [Compound E11, N,O-dipropargyl-N-stearoyl- hydroxylamine]
[5]
  inhibition in vivo at 40 mg/kg: 100%
[5]; chicken No.2
  Anthelmintic effect after one day: +++ (100%)
[5]; chicken No.3
  Anthelmintic effect after one day: +++ (100%)
[5]; chicken No.4
  Anthelmintic effect after one day: +++ (100%)
[5]; chicken No.5
  Anthelmintic effect after one day: +++ (100%)
[6]; 250 ppm in feed, chicken No. 1
  E.P.G. after 5 days: 0
  inhibition in vivo at 250 ppm: 100%
[6]; 250 ppm in feed, chicken No. 2
  anthelmintic effect: +++ (100%)
  E.P.G. after 5 days: 0
[6]; [11]
  E.P.G. after 5 days: 0
  inhibition in vivo at 1000 ppm: 100%
[6]; [12]
  anthelmintic effect: +++ (100%)
  E.P.G. after 5 days: 0
